Reference: patent publication US10124004B2, “Pyrido[3,4-d]pyrimidine derivative and pharmaceutically acceptable salt thereof” (Teijin Pharma Limited, priority 2015, dated 2018)
pIC50: −log10 of the molar value. Where two headings read alike, the source gives them in different places.

Key:
CDK2/cyclin A2 = target: T1, CDK2/cyclin A2 (Homo sapiens, UniProt P24941); assay: Human CDK2/cyclin A2 inhibitory activity (QS S Assist CDK2/Cyclin A2_FP Kit, IMAP fluorescence polarization); assay type: biochemical
T1 construct: purchased Carna Biosciences, Inc. QS S Assist CDK2/Cyclin A2_FP Kit
Summary of the method: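 Kinase activity read as fluorescence polarization (485/535 nm) after phosphorylated fluorescent substrate binds IMAP reagent (30 min, RT, dark). Enzyme (2.5 ng/well) reacted 60 min at RT with ATP/substrate/metal in HEPES pH 7.4 buffer with Tween 20 and DTT; no-enzyme wells define 0% activity; IC50 by curve fit.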

CDK4/cyclin D3 = target: T2, CDK4/cyclin D3 (Homo sapiens, UniProt P11802); assay: Human CDK4/cyclin D3 inhibitory activity (QS S Assist CDK4/Cyclin D3_FP Kit, IMAP fluorescence polarization); assay type: biochemical
T2 construct: purchased Carna Biosciences, Inc. QS S Assist CDK4/Cyclin D3_FP Kit
T2 sequence (P11802 whole entry): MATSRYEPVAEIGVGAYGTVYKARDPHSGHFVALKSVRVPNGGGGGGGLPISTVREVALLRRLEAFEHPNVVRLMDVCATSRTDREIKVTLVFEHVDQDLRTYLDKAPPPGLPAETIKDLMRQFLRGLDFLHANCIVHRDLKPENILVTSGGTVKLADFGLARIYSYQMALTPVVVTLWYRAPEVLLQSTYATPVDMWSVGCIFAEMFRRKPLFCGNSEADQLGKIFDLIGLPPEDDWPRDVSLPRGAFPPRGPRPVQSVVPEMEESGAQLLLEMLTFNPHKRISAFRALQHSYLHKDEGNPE
T2 sequence (P30281 whole entry partner): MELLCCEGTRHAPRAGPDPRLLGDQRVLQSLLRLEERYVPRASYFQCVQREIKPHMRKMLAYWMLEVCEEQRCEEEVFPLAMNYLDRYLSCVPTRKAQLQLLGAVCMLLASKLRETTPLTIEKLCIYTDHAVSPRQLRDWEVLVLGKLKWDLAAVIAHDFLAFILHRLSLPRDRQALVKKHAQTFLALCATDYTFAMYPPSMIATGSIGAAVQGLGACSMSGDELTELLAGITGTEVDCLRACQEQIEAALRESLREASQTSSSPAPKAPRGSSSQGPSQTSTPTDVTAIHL
Summary of the method: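 Percent inhibition, relative to DMSO with and without enzyme, was curve-fitted to give IC50 from polarization (ex 485, em 535 nm). The 45-min room-temperature reaction used 12.5-25 ng/well enzyme, kit ATP/substrate/metal mix, and HEPES pH 7.4 buffer with Tween20 and DTT, followed by 30-min IMAP binding in the dark.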

[1] = 50% inhibitory concentration against CDK2/cyclin A2, given as class symbol
[2] = 50% inhibitory concentration against CDK4/cyclin D3, given as class symbol
[3] = Human CDK2/cyclin A2 inhibitory activity, read-out: CDK2 Activity symbol
[4] = Human CDK4/cyclin D3 inhibitory activity, read-out: CDK4 Activity symbol

| pIC50 (CDK2/cyclin A2; [1]) | pIC50 (CDK4/cyclin D3; [2]) | pIC50 (CDK2/cyclin A2; [3]) | pIC50 (CDK4/cyclin D3; [4]) | SMILES |
| --- | --- | --- | --- | --- |
| ≤ 7.00 | > 8.00 |  |  | CC(=O)c1nc(NC(C)C)c2nc(Nc3ccc(N4CCNCC4=O)cn3)ncc2c1Cl [Compound 1031] |
|  |  | ≤ 7.00 | > 8.00 | C[C@@H](O)c1cc2cnc(Nc3ccc(N4CCNCC4=O)cn3)nc2c(N[C@H]2CCCOC2)n1 [Compound 347] |
|  |  | ≤ 7.00 | 7.00 to 8.00 | COCC(C)(C)Nc1nc([C@@H](C)O)cc2cnc(Nc3ccc(CCCN4CCOCC4=O)cn3)nc12 [Compound 193] |
| ≤ 7.00 | > 8.00 |  |  | C[C@@H](O)c1cc2cnc(Nc3ccc(N4CCNCC4=O)cn3)nc2c(NCC2CC2)n1 [Compound 1043] |
| ≤ 7.00 | > 8.00 |  |  | CC(C)Nc1nc(C(C)O)cc2cnc(Nc3ccc(OC4CCNCC4F)cn3)nc12 (centres unmarked) [Compound 708] |
| ≤ 7.00 | > 8.00 |  |  | CC(C)Nc1nc([C@@H](C)O)cc2cnc(Nc3ccc(N4CCC(O)C(C)(C)C4)nn3)nc12 (some centres unmarked) [Compound 664] |
| ≤ 7.00 | > 8.00 |  |  | CC(C)Nc1nc([C@@H](C)O)cc2cnc(Nc3ccc(N4CCN(C(C)(C)C(=O)O)CC4)nn3)nc12 [Compound 657] |
| ≤ 7.00 | 7.00 to 8.00 |  |  | CO[C@H](C)c1cc2cnc(Nc3ncc(N4CCNCC4=O)cc3F)nc2c(NC(C)C)n1 [Compound 715] |
| ≤ 7.00 | > 8.00 |  |  | O=C1CNCCN1Cc1ccc(Nc2ncc3cc(C(F)F)nc(N[C@H]4CCCOC4)c3n2)nc1 [Compound 856] |
|  |  | ≤ 7.00 | > 8.00 | CO[C@H](C)c1cc2cnc(Nc3ccc(N4CCN(C(=O)CO)CC4)nn3)nc2c(NC(C)C)n1 [Compound 335] |
|  |  | ≤ 7.00 | > 8.00 | CO[C@H](C)c1cc2cnc(Nc3ccc(NC4CCNCC4)nn3)nc2c(NC(C)C)n1 [Compound 336] |
| ≤ 7.00 | > 8.00 |  |  | CO[C@H](C)c1cc2cnc(Nc3ccc4c(n3)CCN(C(=O)OCCN(C)C)C4)nc2c(N[C@H]2CCCOC2)n1 [Compound 1135] |
|  |  | ≤ 7.00 | > 8.00 | COC(C)c1cc2cnc(Nc3ccc(CN4CCNCC4)cn3)nc2c(SC(C)C)n1 (centres unmarked) [Compound 456] |
|  |  | ≤ 7.00 | 7.00 to 8.00 | C[C@@H](O)c1cc2cnc(Nc3ccc(N4CCNCC4)nn3)nc2c(NC(C)(C)CC(=O)O)n1 [Compound 327] |
| ≤ 7.00 | > 8.00 |  |  | CCCNc1nc(C2(C)COC2)cc2cnc(Nc3ccc(N4CCNCC4)nn3)nc12 [Compound 945] |
| ≤ 7.00 | ≤ 7.00 |  |  | CCC(OC)c1cc2cnc(Nc3ccc(N4CCNCC4)nn3)nc2c(NC(C)C)n1 (centres unmarked) [Compound 1068] |
|  |  | ≤ 7.00 | > 8.00 | CC(C)Nc1nc([C@@H](C)O)cc2cnc(Nc3ccc(O[C@H]4CCNC[C@H]4F)cn3)nc12 [Compound 569] |
|  |  | 7.00 to 8.00 | > 8.00 | COCC(C)Nc1nc(C(F)F)cc2cnc(Nc3ccc(N4CCNCC4)cn3)nc12 (centres unmarked) [Compound 30] |
| ≤ 7.00 | 7.00 to 8.00 |  |  | CO[C@H](C)c1cc2cnc(Nc3ccc(CN4CCN(C(C)(C)C(=O)O)CC4)cn3)nc2c(NC(C)C)n1 [Compound 679] |
| ≤ 7.00 | > 8.00 |  |  | CC(C)Nc1nc(C(C)O)cc2cnc(Nc3ccc(N4CCNC(C(F)(F)F)C4)nn3)nc12 (single isomer, unassigned) [Compound 990] |

| pIC50 (CDK2/cyclin A2; [1]) | pIC50 (CDK4/cyclin D3; [2]) | pIC50 (CDK2/cyclin A2; [3]) | pIC50 (CDK4/cyclin D3; [4]) | SMILES |
| --- | --- | --- | --- | --- |
| ≤ 7.00 | > 8.00 |  |  | CCCNc1nc([C@@H](C)O)cc2cnc(Nc3ccc(CN4CCN(C[C@H](C)O)CC4)cn3)nc12 [Compound 1075] |
|  |  | ≤ 7.00 | > 8.00 | C[C@@H](O)c1cc2cnc(Nc3ccc(N4CCN(C=O)CC4=O)cn3)nc2c(NC2CCOCC2)n1 [Compound 355] |
|  |  | ≤ 7.00 | > 8.00 | CC(O)c1cc2cnc(Nc3ccc(N4CCNCC4)cn3)nc2c(NC2CCCOC2)n1 (centres unmarked) [Compound 93] |
| ≤ 7.00 | > 8.00 |  |  | CC1(c2cc3cnc(Nc4ccc(CN5CCNCC5)cn4)nc3c(N[C@H]3CCCOC3)n2)COC1 [Compound 884] |
| ≤ 7.00 | > 8.00 |  |  | C[C@@H](O)c1cc2cnc(Nc3ccc(C4CCN(C(C)(C)C(=O)O)CC4)cn3)nc2c(NC(C)(C)C)n1 [Compound 834] |
|  |  | ≤ 7.00 | > 8.00 | CC(O)c1cc2cnc(Nc3ccc(N4CCNCC4)cn3)nc2c(NC(C)(C)C)n1 (centres unmarked) [Compound 24] |
| ≤ 7.00 | > 8.00 |  |  | CC(C)Nc1nc([C@@H](C)O)cc2cnc(Nc3ccc(CN4CCCCC4)cn3)nc12 [Compound 1038] |
| ≤ 7.00 | > 8.00 |  |  | C[C@@H](O)c1cc2cnc(Nc3ccc(CN4CCCC(O)C4)cn3)nc2c(NC2CCC2)n1 (some centres unmarked) [Compound 1084] |
|  |  | 7.00 to 8.00 | > 8.00 | CC(C)Nc1nc(C(F)F)cc2cnc(Nc3ccc(CCCCO)cn3)nc12 [Compound 108] |
| ≤ 7.00 | > 8.00 |  |  | C[C@@H](O)c1cc2cnc(Nc3ccc(N4CCNCC4=O)cn3)nc2c(NC2(C)CC2)n1 [Compound 1173] |
| ≤ 7.00 | > 8.00 |  |  | CC1(c2cc3cnc(Nc4ccc(CN5CCNCC5)cn4)nc3c(NC3CCC3)n2)COC1 [Compound 1108] |
|  |  | ≤ 7.00 | 7.00 to 8.00 | CC(C)Nc1nc(C(F)F)cc2cnc(Nc3ccc(CN4CCN(S(=O)(=O)N(C)C)CC4)cn3)nc12 [Compound 114] |
| ≤ 7.00 | > 8.00 |  |  | C[C@@H](O)c1cc2cnc(Nc3ccc(CN4CCN(CCO)CC4)cn3)nc2c(NC2CC(F)(F)C2)n1 [Compound 1204] |
| ≤ 7.00 | > 8.00 |  |  | C[C@@H](O)c1cc2cnc(Nc3ccc(CN4CCC(O)CC4)cn3)nc2c(NCC2CCOCC2)n1 [Compound 1065] |
|  |  | ≤ 7.00 | > 8.00 | CC(C)Nc1nc([C@@H](C)O)cc2cnc(Nc3ccc(N4CC5(CC(N(C)C)C5)C4)nn3)nc12 [Compound 611] |
| ≤ 7.00 | > 8.00 |  |  | C[C@@H](O)c1cc2cnc(Nc3ccc(CN4CCN(CCO)CC4)cn3)nc2c(NCC2CC2)n1 [Compound 999] |
| ≤ 7.00 | > 8.00 |  |  | C[C@@H](O)c1cc2cnc(Nc3ccc(CN4CCCC(O)C4)cn3)nc2c(NC(C)(C)C)n1 (some centres unmarked) [Compound 1127] |
| ≤ 7.00 | > 8.00 |  |  | CO[C@H](C)c1cc2cnc(Nc3ccc(N4CCN(CC(N)=O)CC4)nn3)nc2c(NC(C)C)n1 [Compound 908] |
| ≤ 7.00 | > 8.00 |  |  | CCCNc1nc([C@@H](C)O)cc2cnc(Nc3ccc(CN4CCN(CCO)C[C@@H]4C)cn3)nc12 [Compound 1077] |
| ≤ 7.00 | > 8.00 |  |  | CCCNc1nc(C2CCOC2)cc2cnc(Nc3ccc(N4CCNCC4)cn3)nc12 (centres unmarked) [Compound 1004] |

| pIC50 (CDK2/cyclin A2; [1]) | pIC50 (CDK4/cyclin D3; [2]) | pIC50 (CDK2/cyclin A2; [3]) | pIC50 (CDK4/cyclin D3; [4]) | SMILES |
| --- | --- | --- | --- | --- |
| ≤ 7.00 | > 8.00 |  |  | CO[C@H](C)c1cc2cnc(Nc3ccc4c(n3)CCN(CCO)C4)nc2c(N[C@H]2CC[C@H](O)CC2)n1 [Compound 1153] |
|  |  | ≤ 7.00 | ≤ 7.00 | C[C@@H](O)c1cc2cnc(Nc3ccc(N4CCNCC4)nn3)nc2c(NC2CCCCC2C(=O)O)n1 (some centres unmarked) [Compound 308] |
| ≤ 7.00 | 7.00 to 8.00 |  |  | CC(C)Nc1nc([C@@H](C)O)cc2cnc(Nc3cc4c(cn3)CN(C(=O)CO)CC4)nc12 [Compound 655] |
| ≤ 7.00 | 7.00 to 8.00 |  |  | CCNc1nc([C@@H](C)O)cc2cnc(Nc3cc(C)c(CN4CCN(CCO)CC4)cn3)nc12 [Compound 1053] |
|  |  | 7.00 to 8.00 | 7.00 to 8.00 | CC(C)Nc1nc(C(F)F)cc2cnc(Nc3ccc(NC(N)=O)cn3)nc12 [Compound 85] |
| ≤ 7.00 | > 8.00 |  |  | Cc1nc(Nc2ncc3cc([C@@H](C)O)nc(NC(C)C)c3n2)ccc1N1CCNCC1 [Compound 924] |
| ≤ 7.00 | > 8.00 |  |  | CC(C)Nc1nc([C@@H](C)O)cc2cnc(Nc3ccc(N4CC[C@H](O)C4)nn3)nc12 [Compound 662] |
| ≤ 7.00 | > 8.00 |  |  | CO[C@H](C)c1cc2cnc(Nc3ccc(CN4CCN(CC(=O)N(C)C)CC4)cn3)nc2c(NC(C)C)n1 [Compound 972] |
| ≤ 7.00 | > 8.00 |  |  | CC(C)Nc1nc([C@@H](C)O)cc2cnc(Nc3ccc(CN4CCN(C(=O)CO)CC4)cn3)nc12 [Compound 987] |
|  |  | ≤ 7.00 | 7.00 to 8.00 | CC(C)Nc1nc(C(F)F)cc2cnc(Nc3ccc(O[C@H]4CC[C@@H](O)CC4)cn3)nc12 [Compound 119] |
| ≤ 7.00 | > 8.00 |  |  | C[C@@H](O)c1cc2cnc(Nc3ccc(CN4CCN(CCO)CC4)cn3)nc2c(NCCC(F)F)n1 [Compound 1213] |
| ≤ 7.00 | 7.00 to 8.00 |  |  | CC(C)Nc1nc(C2CCOC2)cc2cnc(Nc3ccc(N4CCN(CC(=O)O)CC4C(F)(F)F)cn3)nc12 (centres unmarked) [Compound 889] |
| ≤ 7.00 | 7.00 to 8.00 |  |  | C[C@@H](O)c1cc2cnc(Nc3ccc(N4CCNCC4=O)cn3)nc2c(N(C)[C@H]2CCCOC2)n1 [Compound 872] |
| ≤ 7.00 | > 8.00 |  |  | CCCCNc1nc([C@@H](C)O)cc2cnc(Nc3ccc(N4CCNCC4=O)cn3)nc12 [Compound 813] |
| ≤ 7.00 | > 8.00 |  |  | CCCNc1nc([C@@H](C)OC)cc2cnc(Nc3ccc(N4CCNCC4)cn3)nc12 [Compound 920] |
| ≤ 7.00 | > 8.00 |  |  | C[C@@H](O)c1cc2cnc(Nc3ccc(N4CCN(C)CC4)nn3)nc2c(NC2CCC(C)(C)OC2)n1 (some centres unmarked) [Compound 639] |
| ≤ 7.00 | > 8.00 |  |  | CC(C)Nc1nc([C@@H](C)O)cc2cnc(Nc3ccc4c(n3)CCN(C(=O)CO)C4)nc12 [Compound 651] |
|  |  | ≤ 7.00 | > 8.00 | CO[C@H](C)c1cc2cnc(Nc3ccc(OCCN(C)C)cn3)nc2c(NC(C)C)n1 [Compound 227] |
